According to patent publication US20020188202A1, “Method of diagnosis and treatment and related compositions and apparatus” (priority 1996, published 2002):
“Also recorded” adds a separate entry of the source. Structures can show the parent of a compound that is named as a salt. Where two headings read alike, the source gives them in different places.

Experiments:
[1] = tested on: patients with cerebral vasospasm; experiment: Vasoactive medications tried on Applicant's patients with vasospasm, monitored by Transcranial Doppler (TCD), exam and symptoms; conditions: for effectiveness in treating the vasospasm: qualitative rating in Applicant's patient population (tend to be the most severe cases); for effect on vessels seen on TCD / ultrasound (vasoconstriction or dilatation) / headache / neurological exam and other neurological abnormalities: human, in vivo; for EEG abnormalities and neurocognitive or neurological complaints / change of the vasospasm: anti-epileptic drugs in therapeutic doses
[2] = tested on: patients with cerebral vasospasm; conditions: human, in vivo
[3] = tested on: patient with migraine, schizophrenic reaction and vasospasm; experiment: Case study: psychosis caused by cerebral ischemia, EEG and TCD; assay type: in vivo, human patient; conditions: single patient; for response of psychosis (hallucinations and delusions): in hospital
[4] = IM, lower doses than 90 to 120 mg

CCOC(=O)[C@H](CCc1ccccc1)N[C@@H](C)C(=O)N1Cc2ccccc2C[C@H]1C(=O)O [Accupril, Quinapril]
effectiveness in treating the vasospasm [1]: consistently been the most effective
weaning from oral medications ([1]; with concomitant low dose Nitroglycerin, 1/10th inch once to several times a day): most patients may be eventually weaned from the use of oral medications

C[C@H](CS)C(=O)N1CCC[C@H]1C(=O)O [Capoten, Captopril]
effectiveness in treating the vasospasm [1]: close second tier medications

COc1cc2nc(N3CCN(C(=O)C4COc5ccccc5O4)CC3)nc(N)c2cc1OC (centres unmarked) [Cardura, Doxazosin]
effectiveness in treating the vasospasm [1]: relatively mild medication

Clc1cccc(Cl)c1N=C1NCCN1 [Clonidine]
transient supersensitivity (transient worsening of the vasospasm) on early administration [2]: did not occur
effect on vessels seen on TCD / ultrasound (vasoconstriction or dilatation) [1]: resulted in vascular dilatation
headache [1]: alleviated or treated the headache
neurological exam and other neurological abnormalities [1]: clinical and neurological exam improvement
treating migraine induced depression due to chronic vasospasm ([1]; patients who could not tolerate or respond to other vasodilators): useful in these depressed patients
effectiveness in treating the vasospasm [1]: extremely effective

CN1C[C@H](C(=O)N[C@]2(C)O[C@@]3(O)[C@@H]4CCCN4C(=O)[C@H](Cc4ccccc4)N3C2=O)C[C@@H]2c3cccc4[nH]cc(c34)C[C@H]21 [DHE]
effect on vessels seen on TCD / ultrasound (vasoconstriction or dilatation) [1]: caused vasoconstriction
headache [1]: improved their headache
neurological exam and other neurological abnormalities [1]: worsened the patient's neurological exam and mentation

CCCC(CCC)C(=O)[O-].[Na+] [Depakote, Sodium Valproate]
EEG abnormalities and neurocognitive or neurological complaints [1]: improved in some patients
change of the vasospasm [1]: none of the medications in therapeutic doses have changed the vasospasm
EEG and flow abnormalities on Transcranial Doppler [3]: without change in their EEG and continued flow abnormalities

CC(COc1ccccc1)N(CCCl)Cc1ccccc1 (centres unmarked) [Dibenzyline, Phenoxybenzamine]
effectiveness in treating the vasospasm [1]: relatively mild

COc1ccc([C@@H]2Sc3ccccc3N(CCN(C)C)C(=O)[C@@H]2OC(C)=O)cc1 [Dilacor, Diltiazem]
effectiveness in treating the vasospasm [1]: less effective

O=C1NC(=O)C(c2ccccc2)(c2ccccc2)N1 [Dilantin, Phenytoin]
EEG abnormalities and neurocognitive or neurological complaints [1]: improved in some patients
change of the vasospasm [1]: none of the medications in therapeutic doses have changed the vasospasm

COC(=O)C1=C(C)NC(C)=C(C(=O)OC(C)C)C1c1cccc2nonc12 (centres unmarked) [Dynacirc, isradipine]
transient supersensitivity (transient worsening of the vasospasm) on early administration [2]: did not occur
effect on vessels seen on TCD / ultrasound (vasoconstriction or dilatation) [1]: resulted in vascular dilatation
headache [1]: alleviated or treated the headache
neurological exam and other neurological abnormalities [1]: clinical and neurological exam improvement
effectiveness in treating the vasospasm [1]: extremely effective

O=C(CCCN1CCC(O)(c2ccc(Cl)cc2)CC1)c1ccc(F)cc1 [Haldol, Haloperidol]
response of psychosis (hallucinations and delusions) [3]: did not respond; also recorded: poor response

NNc1nncc2ccccc12 [Hydralazine]
blood pressure changes [2]: tends to cause significant blood pressure changes
transient supersensitivity (transient worsening of the vasospasm) on early administration [2]: did not occur

COc1cc2nc(N3CCN(C(=O)C4CCCO4)CC3)nc(N)c2cc1OC (centres unmarked) [Hytrin, Terazosin]
effectiveness in treating the vasospasm [1]: less successful results; also recorded: has not been found to be effective

CNS(=O)(=O)Cc1ccc2[nH]cc(CCN(C)C)c2c1 [Imitrex, sumatriptan succinate]
effect on vessels seen on TCD / ultrasound (vasoconstriction or dilatation) [1]: caused vasoconstriction
headache [1]: improved their headache
neurological exam and other neurological abnormalities [1]: worsened the patient's neurological exam and mentation

CC(C)NCC(O)COc1cccc2ccccc12 (centres unmarked) [Inderal, Propranolol]
smoothing out the sympathetic nervous system excitability and variability ([1]; patients being tapered off vasodilators): most effective; also recorded: extremely effective
effectiveness in treating the vasospasm [1]: None of these have been significantly effective at vasodilation
EEG and flow abnormalities on Transcranial Doppler [3]: without change in their EEG and continued flow abnormalities

COCCc1ccc(OCC(O)CNC(C)C)cc1 (centres unmarked) [Lopressor, Metoprolol Tartrate]
effectiveness in treating the vasospasm [1]: None of these have been significantly effective at vasodilation

CCOC(=O)[C@H](CCc1ccccc1)N[C@H]1CCc2ccccc2N(CC(=O)O)C1=O [Lotensin, Benazepril]
effectiveness in treating the vasospasm [1]: close second tier medications

CSc1ccc2c(c1)N(CCC1CCCCN1C)c1ccccc1S2 (centres unmarked) [Mellaril, Thioridazine]
effectiveness in treating the vasospasm [1]: has not been effective; also recorded: no significant effects

CN1CCN(CC/C=C2/c3ccccc3Sc3ccc(S(=O)(=O)N(C)C)cc32)CC1 [Navane, Thiothixene]
improvement in the Transcranial Doppler Artery Ultrasound ([1]; patients with TCD mean flow velocities greater than 1.3, within a half hour of 2 mg in 4 ounces of water orally, generally expected): 50%
blood pressure changes ([1]; patients with vasospasm): without causing peripheral blood pressure changes
effectiveness in treating the vasospasm [1]: extremely effective central vasodilator
effectiveness in treating the vasospasm ([1]; listed as Navanne): most effective
response of psychosis (hallucinations and delusions) [3]: good response

CC(CCc1ccccc1)NCC(O)c1ccc(O)c(C(N)=O)c1 (centres unmarked) [Normodyne, Labetolol]
effectiveness in treating the vasospasm [1]: None of these have been significantly effective at vasodilation

NCCCC[C@H](N[C@@H](CCc1ccccc1)C(=O)O)C(=O)N1CCC[C@H]1C(=O)O [Prinivil, Lisinopril]
effectiveness in treating the vasospasm [1]: close second tier medications

CNCCC(Oc1ccc(C(F)(F)F)cc1)c1ccccc1 (centres unmarked) [Prozac]
effectiveness in treating the vasospasm [1]: helpful

COC(=O)[C@H]1[C@H]2C[C@@H]3c4[nH]c5cc(OC)ccc5c4CCN3C[C@H]2C[C@@H](OC(=O)c2cc(OC)c(OC)c(OC)c2)[C@@H]1OC [Reserpine]
effectiveness in treating the vasospasm [1]: very effective; also recorded: extremely effective

Cc1nc2n(c(=O)c1CCN1CCC(c3noc4cc(F)ccc34)CC1)CCCC2 [Respiradol, Respiradone]
tolerability [2]: less well-tolerated in comparison with Thorazine and Navane
patient's symptoms ([1]; antipsychotic agents in patients with vasospasm): generally improved the patient's symptoms
effect on vessels seen on TCD / ultrasound (vasoconstriction or dilatation) [1]: no significant improvement on ultrasound

O=C(O)C(O)C(O)C(=O)O.Oc1ccc2c(c1)[C@@]13CCCC[C@@]1(O)[C@@H](C2)N(CC1CCC1)CC3 [Stadol, butorphanol tartrate]
effect on vessels seen on TCD / ultrasound (vasoconstriction or dilatation) [1]: caused vasoconstriction
headache [1]: improved their headache
neurological exam and other neurological abnormalities [1]: worsened the patient's neurological exam and mentation

NC(=O)N1c2ccccc2C=Cc2ccccc21 [Tegretol, Carbamazepine]
EEG abnormalities and neurocognitive or neurological complaints [1]: improved in some patients
change of the vasospasm [1]: none of the medications in therapeutic doses have changed the vasospasm

CC(C)NCC(O)COc1ccc(CC(N)=O)cc1 (centres unmarked) [Tenormin, Atenolol]
effectiveness in treating the vasospasm [1]: None of these have been significantly effective at vasodilation

CN(C)CCCN1c2ccccc2Sc2ccc(Cl)cc21 [Thorazine, Chlorpromazine]
effectiveness in treating the vasospasm [1]: moderately effected; also recorded: moderately effective

O=C(c1ccccc1)c1ccc2n1CCC2C(=O)O (centres unmarked) [Toradol, ketorolac tromethamine]
effect on Transcranial Doppler ultrasound ([1]; 90 to 120 mg IM doses): causes acute vasodilation on ultrasound in most patients
reversal of reactive vasoconstriction (Nitric Oxide sensitivity reaction) after first nitrate dose ([1]; IM): can be immediately reversed
effectiveness ([1]; IM, doses lower than 90-120 mg): not so effective
effect on Transcranial Doppler ultrasound [1, 4]: generally do not show significant changes
patient-reported symptoms [1, 4]: symptomatic improvement
improvement on Transcranial Doppler Artery Ultrasound ([1]; IV, 30 to 60 mg doses): does not cause any improvement
effect on vessels seen on TCD / ultrasound (vasoconstriction or dilatation) [1]: resulted in vascular dilatation
headache [1]: alleviated or treated the headache
neurological exam and other neurological abnormalities [1]: clinical and neurological exam improvement
vasodilation ([1]; intramuscularly (I.M.) or oral form after oral or I.M. loading): gives the expected vasodilation

NCCCC[C@H](N[C@@H](CCc1ccccc1)C(=O)O)C(=O)N1CCC[C@H]1C(=O)O [Zestril, Lisinopril]
effectiveness in treating the vasospasm [1]: extremely effective
